Laboratory results from PubChem BioAssay AID1963976 (Molecular Pharmacology Branch, DTP, NCI, 2024).

System: 435261-313-R-J1-PDC tumor spheroid viability
Assay: Anticancer human tumor 435261-313-R-J1-PDC patient-derived colon adenocarcinoma cell line growth inhibition [PI3K]
Conditions: spheroids with HUVEC and MSC; for IC50: curve of first compound; for viability, T/C: stronger effect = lower value
Procedure, shortened: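 Multi-cell spheroids combine tumor cells with HUVEC and human MSCs, treated with targeted agents alone or with inavolisib, alpelisib, duvelisib or copanlisib. Concentrations fall in half-log steps from at or near clinical Cmax, or from 10 microM where Cmax is unknown; viability read-out.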

[1] = second compound 0.0316 µM, first compound 0.0316 µM
[2] = second compound 0.0316 µM, first compound 0.1 µM
[3] = second compound 0.1 µM, first compound 0.0316 µM
[4] = second compound 0.1 µM, first compound 0.1 µM
[5] = second compound 0.316 µM, first compound 0.0316 µM
[6] = second compound 0.316 µM, first compound 0.1 µM
[7] = second compound 1 µM, first compound 0.0316 µM
[8] = second compound 1 µM, first compound 0.1 µM
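Further: spheroids exposed to compounds for 7 days.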

Cn1ncnc1[C@H]1c2n[nH]c(=O)c3cc(F)cc(c23)N[C@@H]1c1ccc(F)cc1 + CC(Nc1ccc2c(c1)OCCn1cc(N3C(=O)OCC3C(F)F)nc1-2)C(N)=O
IC50 (second compound 0.00316 µM): > 100 nM | IC50 (second compound 0.01 µM): > 100 nM | IC50 (second compound 0.0316 µM): 43.5 nM | IC50 (second compound 0.1 µM): 0.592 nM | IC50 (second compound 0.316 µM): < 0.316 nM | IC50 (second compound 1 µM): < 0.316 nM | viability, T/C (second compound 0.00316 µM, first compound 0.000316 µM): 105% | viability, T/C (second compound 0.00316 µM, first compound 0.001 µM): 88.5% | viability, T/C (second compound 0.00316 µM, first compound 0.00316 µM): 102% | viability, T/C (second compound 0.00316 µM, first compound 0.01 µM): 96.3% | viability, T/C (second compound 0.00316 µM, first compound 0.0316 µM): 83.9% | viability, T/C (second compound 0.00316 µM, first compound 0.1 µM): 69.4% | viability, T/C (second compound 0.01 µM, first compound 0.000316 µM): 74.4% | viability, T/C (second compound 0.01 µM, first compound 0.001 µM): 85.5% | viability, T/C (second compound 0.01 µM, first compound 0.00316 µM): 81.7% | viability, T/C (second compound 0.01 µM, first compound 0.01 µM): 95.8% | viability, T/C (second compound 0.01 µM, first compound 0.0316 µM): 68% | viability, T/C (second compound 0.01 µM, first compound 0.1 µM): 50.2% | viability, T/C (second compound 0.0316 µM, first compound 0.000316 µM): 67.4% | viability, T/C (second compound 0.0316 µM, first compound 0.001 µM): 81.3% | viability, T/C (second compound 0.0316 µM, first compound 0.00316 µM): 92.6% | viability, T/C (second compound 0.0316 µM, first compound 0.01 µM): 86.1% | viability, T/C [1]: 53.6% | viability, T/C [2]: 40.4% | viability, T/C (second compound 0.1 µM, first compound 0.000316 µM): 55.6% | viability, T/C (second compound 0.1 µM, first compound 0.001 µM): 42.9% | viability, T/C (second compound 0.1 µM, first compound 0.00316 µM): 41.9% | viability, T/C (second compound 0.1 µM, first compound 0.01 µM): 39.4% | viability, T/C [3]: 36.1% | viability, T/C [4]: 30.7% | viability, T/C (second compound 0.316 µM, first compound 0.000316 µM): 21.6% | viability, T/C (second compound 0.316 µM, first compound 0.001 µM): 20.8% | viability, T/C (second compound 0.316 µM, first compound 0.00316 µM): 26.2% | viability, T/C (second compound 0.316 µM, first compound 0.01 µM): 19.5% | viability, T/C [5]: 20.6% | viability, T/C [6]: 17.1% | viability, T/C (second compound 1 µM, first compound 0.000316 µM): 18.3% | viability, T/C (second compound 1 µM, first compound 0.001 µM): 17.5% | viability, T/C (second compound 1 µM, first compound 0.00316 µM): 17% | viability, T/C (second compound 1 µM, first compound 0.01 µM): 20.7% | viability, T/C [7]: 20.2% | viability, T/C [8]: 12.5%

C=CC(=O)N1CCN(c2nc(=O)n(-c3c(C)ccnc3C(C)C)c3nc(-c4c(O)cccc4F)c(F)cc23)C(C)C1 (centres undefined) + Cc1nc(NC(=O)N2CCCC2C(N)=O)sc1-c1ccnc(C(C)(C)C(F)(F)F)c1
IC50 (second compound 0.0316 µM): > 10000 nM | IC50 (second compound 0.1 µM): > 10000 nM | IC50 (second compound 0.316 µM): > 10000 nM | IC50 (second compound 1 µM): < 31.6 nM | IC50 (second compound 3.16 µM): < 31.6 nM | IC50 (second compound 10 µM): < 31.6 nM | viability, T/C [1]: 70.5% | viability, T/C [2]: 84% | viability, T/C (second compound 0.0316 µM, first compound 0.316 µM): 80.8% | viability, T/C (second compound 0.0316 µM, first compound 1 µM): 91.5% | viability, T/C (second compound 0.0316 µM, first compound 3.16 µM): 112% | viability, T/C (second compound 0.0316 µM, first compound 10 µM): 121% | viability, T/C [3]: 71.5% | viability, T/C [4]: 71.3% | viability, T/C (second compound 0.1 µM, first compound 0.316 µM): 73.5% | viability, T/C (second compound 0.1 µM, first compound 1 µM): 75% | viability, T/C (second compound 0.1 µM, first compound 3.16 µM): 129% | viability, T/C (second compound 0.1 µM, first compound 10 µM): 119% | viability, T/C [5]: 49.5% | viability, T/C [6]: 52.4% | viability, T/C (second compound 0.316 µM, first compound 0.316 µM): 56.9% | viability, T/C (second compound 0.316 µM, first compound 1 µM): 58.4% | viability, T/C (second compound 0.316 µM, first compound 3.16 µM): 77.1% | viability, T/C (second compound 0.316 µM, first compound 10 µM): 78.9% | viability, T/C [7]: 35.1% | viability, T/C [8]: 25.1% | viability, T/C (second compound 1 µM, first compound 0.316 µM): 27.6% | viability, T/C (second compound 1 µM, first compound 1 µM): 39.6% | viability, T/C (second compound 1 µM, first compound 3.16 µM): 36.6% | viability, T/C (second compound 1 µM, first compound 10 µM): 54.8% | viability, T/C (second compound 3.16 µM, first compound 0.0316 µM): 15.3% | viability, T/C (second compound 3.16 µM, first compound 0.1 µM): 19.4% | viability, T/C (second compound 3.16 µM, first compound 0.316 µM): 17.9% | viability, T/C (second compound 3.16 µM, first compound 1 µM): 23% | viability, T/C (second compound 3.16 µM, first compound 3.16 µM): 24.3% | viability, T/C (second compound 3.16 µM, first compound 10 µM): 18.6% | viability, T/C (second compound 10 µM, first compound 0.0316 µM): 9.68% | viability, T/C (second compound 10 µM, first compound 0.1 µM): 9.35% | viability, T/C (second compound 10 µM, first compound 0.316 µM): 8.96% | viability, T/C (second compound 10 µM, first compound 1 µM): 9.4% | viability, T/C (second compound 10 µM, first compound 3.16 µM): 9.55% | viability, T/C (second compound 10 µM, first compound 10 µM): 6.21%
